Measured values published in patent US20210323913A1, “SIGMA RECEPTOR BINDERS” (BOARD OF REGENTS, THE UNIVERSITY OF TEXAS SYSTEM, priority 2016, published 2021).
Like-named read-outs stand apart in the source and are kept apart here.

Tests used:
sigma 2 receptor = sigma 2 receptor (Homo sapiens, UniProt Q5BJF2); assay: Sigma 2 receptor radioligand competition binding; details: for Ki ratio Sig1R/Sig2R: ratio of Sig1R Ki to Sig2R Ki
sigma 1 receptor = sigma 1 receptor (Homo sapiens, UniProt Q99720); assay: Sigma 1 receptor radioligand competition binding
Chain of sigma 1 receptor (Q99720 whole entry, species assumed): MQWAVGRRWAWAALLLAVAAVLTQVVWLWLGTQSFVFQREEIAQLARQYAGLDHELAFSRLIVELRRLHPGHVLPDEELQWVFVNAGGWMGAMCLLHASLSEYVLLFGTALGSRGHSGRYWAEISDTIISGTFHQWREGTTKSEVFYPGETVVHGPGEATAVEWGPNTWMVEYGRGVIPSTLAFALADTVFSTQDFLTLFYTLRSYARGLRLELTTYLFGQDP

H1 = H1 (Homo sapiens, UniProt P35367); assay: Radioligand competition binding, H1; details: Table 5; Cheng-Prusoff from best fit IC50
Chain of H1 (P35367 whole entry): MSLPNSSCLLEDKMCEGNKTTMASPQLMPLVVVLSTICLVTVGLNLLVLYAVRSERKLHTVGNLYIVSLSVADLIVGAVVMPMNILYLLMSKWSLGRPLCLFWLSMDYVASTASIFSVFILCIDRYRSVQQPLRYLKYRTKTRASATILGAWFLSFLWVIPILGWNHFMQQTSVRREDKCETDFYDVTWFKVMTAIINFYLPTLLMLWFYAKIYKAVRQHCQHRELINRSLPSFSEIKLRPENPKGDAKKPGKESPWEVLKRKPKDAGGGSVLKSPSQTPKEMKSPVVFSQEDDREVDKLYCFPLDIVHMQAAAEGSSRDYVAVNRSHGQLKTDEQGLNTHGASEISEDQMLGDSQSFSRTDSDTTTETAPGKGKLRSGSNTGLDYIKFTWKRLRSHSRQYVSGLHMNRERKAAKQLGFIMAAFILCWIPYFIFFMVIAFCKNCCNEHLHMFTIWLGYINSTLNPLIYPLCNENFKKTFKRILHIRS

5-HT7 = 5-HT7 (Homo sapiens, UniProt P34969); assay: Radioligand competition binding, 5-HT7; details: Table 5; Cheng-Prusoff from best fit IC50
Chain of 5-HT7 (P34969 whole entry, species assumed): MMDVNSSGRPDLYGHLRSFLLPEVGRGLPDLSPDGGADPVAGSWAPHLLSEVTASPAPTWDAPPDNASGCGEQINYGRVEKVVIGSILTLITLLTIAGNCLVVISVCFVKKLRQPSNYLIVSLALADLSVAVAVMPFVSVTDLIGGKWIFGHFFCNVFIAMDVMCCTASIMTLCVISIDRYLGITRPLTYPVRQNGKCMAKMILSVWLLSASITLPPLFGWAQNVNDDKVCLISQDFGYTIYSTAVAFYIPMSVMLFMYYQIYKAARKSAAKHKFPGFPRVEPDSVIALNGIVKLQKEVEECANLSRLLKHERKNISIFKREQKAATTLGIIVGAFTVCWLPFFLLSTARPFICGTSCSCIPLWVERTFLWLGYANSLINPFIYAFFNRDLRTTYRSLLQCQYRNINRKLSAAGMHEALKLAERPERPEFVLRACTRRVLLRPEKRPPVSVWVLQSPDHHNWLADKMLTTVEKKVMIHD

5-HT1B = 5-HT1B (Homo sapiens, UniProt P28222); assay: Radioligand competition binding, 5-HT1B; details: Table 5; Cheng-Prusoff from best fit IC50
H2 = H2 (Homo sapiens, UniProt P25021); assay: Radioligand competition binding, H2; details: Table 5; Cheng-Prusoff from best fit IC50
5-HT1A = target: T1, 5-HT1A (Homo sapiens, UniProt P08908); assay: Radioligand competition binding, 5-HT1A; details: Table 5; Cheng-Prusoff from best fit IC50
T1 sequence (P08908 1-422): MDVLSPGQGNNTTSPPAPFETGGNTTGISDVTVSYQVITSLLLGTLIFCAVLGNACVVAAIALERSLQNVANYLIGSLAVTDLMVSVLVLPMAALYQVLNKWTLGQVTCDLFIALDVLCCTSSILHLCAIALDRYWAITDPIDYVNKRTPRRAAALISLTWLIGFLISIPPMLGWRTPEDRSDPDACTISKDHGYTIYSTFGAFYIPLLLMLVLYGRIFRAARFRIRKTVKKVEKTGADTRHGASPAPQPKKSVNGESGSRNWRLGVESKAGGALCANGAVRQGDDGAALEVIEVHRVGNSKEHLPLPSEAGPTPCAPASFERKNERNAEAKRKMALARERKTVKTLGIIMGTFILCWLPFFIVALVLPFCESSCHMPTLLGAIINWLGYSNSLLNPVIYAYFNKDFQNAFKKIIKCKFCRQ

D1 = D1 (Homo sapiens, UniProt P21728); assay: Radioligand competition binding, D1; details: Table 5; Cheng-Prusoff from best fit IC50; some values marked (AVE)
Chain of D1 (P21728 whole entry): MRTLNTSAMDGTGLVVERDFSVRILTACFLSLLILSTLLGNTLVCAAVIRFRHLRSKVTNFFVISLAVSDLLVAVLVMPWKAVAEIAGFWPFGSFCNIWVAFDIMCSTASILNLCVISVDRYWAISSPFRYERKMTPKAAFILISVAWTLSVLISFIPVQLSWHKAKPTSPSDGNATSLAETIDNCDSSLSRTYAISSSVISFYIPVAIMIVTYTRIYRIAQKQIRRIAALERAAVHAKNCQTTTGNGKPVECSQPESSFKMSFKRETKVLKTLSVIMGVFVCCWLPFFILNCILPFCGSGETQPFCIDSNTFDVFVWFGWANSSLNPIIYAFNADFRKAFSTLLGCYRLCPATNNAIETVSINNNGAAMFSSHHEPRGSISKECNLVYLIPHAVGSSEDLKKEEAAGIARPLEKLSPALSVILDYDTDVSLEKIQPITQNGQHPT

D3 = D3 (Homo sapiens, UniProt P35462); assay: Radioligand competition binding, D3; details: Table 5; Cheng-Prusoff from best fit IC50; one value marked (AVE)
Chain of D3 (P35462 whole entry): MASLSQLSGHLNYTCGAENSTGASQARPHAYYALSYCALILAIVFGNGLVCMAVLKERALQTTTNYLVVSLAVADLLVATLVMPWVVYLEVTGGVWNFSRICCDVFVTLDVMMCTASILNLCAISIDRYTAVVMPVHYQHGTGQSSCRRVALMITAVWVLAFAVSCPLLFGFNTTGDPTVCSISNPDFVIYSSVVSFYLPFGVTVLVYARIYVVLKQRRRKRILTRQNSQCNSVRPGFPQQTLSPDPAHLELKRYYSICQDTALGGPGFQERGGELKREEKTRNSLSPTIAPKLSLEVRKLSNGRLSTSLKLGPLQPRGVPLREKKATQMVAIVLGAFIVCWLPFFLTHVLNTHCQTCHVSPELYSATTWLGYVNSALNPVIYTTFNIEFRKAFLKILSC

Alpha2A = target: T2, Alpha2A (Homo sapiens, UniProt P08913); assay: Radioligand competition binding, Alpha2A; details: Table 5; Cheng-Prusoff from best fit IC50
T2 sequence (P08913 1-465): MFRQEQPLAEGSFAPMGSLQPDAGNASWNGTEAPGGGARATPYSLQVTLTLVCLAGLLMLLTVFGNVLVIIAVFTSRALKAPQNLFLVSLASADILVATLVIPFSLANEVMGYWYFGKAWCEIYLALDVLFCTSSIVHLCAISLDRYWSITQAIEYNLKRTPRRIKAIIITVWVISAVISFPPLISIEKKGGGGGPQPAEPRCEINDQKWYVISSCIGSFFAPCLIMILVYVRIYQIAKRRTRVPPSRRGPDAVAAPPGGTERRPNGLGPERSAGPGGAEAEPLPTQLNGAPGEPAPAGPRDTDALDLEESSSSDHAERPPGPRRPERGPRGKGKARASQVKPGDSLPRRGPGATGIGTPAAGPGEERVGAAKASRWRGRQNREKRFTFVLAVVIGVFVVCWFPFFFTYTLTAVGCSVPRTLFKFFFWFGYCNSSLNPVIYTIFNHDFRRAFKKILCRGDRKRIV

D4 = target: T3, D4 (Homo sapiens, UniProt P21917); assay: Radioligand competition binding, D4; details: Table 5; Cheng-Prusoff from best fit IC50
T3 sequence (P21917 1-419): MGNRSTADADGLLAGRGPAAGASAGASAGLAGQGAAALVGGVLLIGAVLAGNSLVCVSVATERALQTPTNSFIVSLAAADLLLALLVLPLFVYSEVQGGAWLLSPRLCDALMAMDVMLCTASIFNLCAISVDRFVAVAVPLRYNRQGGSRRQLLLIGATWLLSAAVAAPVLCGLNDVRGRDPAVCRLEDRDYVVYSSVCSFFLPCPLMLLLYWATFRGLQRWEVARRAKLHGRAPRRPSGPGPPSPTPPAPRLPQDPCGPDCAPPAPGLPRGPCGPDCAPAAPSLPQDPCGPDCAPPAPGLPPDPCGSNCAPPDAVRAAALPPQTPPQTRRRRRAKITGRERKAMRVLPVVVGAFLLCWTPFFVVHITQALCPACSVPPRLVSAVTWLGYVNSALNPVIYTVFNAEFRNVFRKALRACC

DAT = DAT (Homo sapiens, UniProt Q01959); assay: Radioligand competition binding, DAT; details: Table 5; Cheng-Prusoff from best fit IC50
Chain of DAT (Q01959 whole entry, species assumed): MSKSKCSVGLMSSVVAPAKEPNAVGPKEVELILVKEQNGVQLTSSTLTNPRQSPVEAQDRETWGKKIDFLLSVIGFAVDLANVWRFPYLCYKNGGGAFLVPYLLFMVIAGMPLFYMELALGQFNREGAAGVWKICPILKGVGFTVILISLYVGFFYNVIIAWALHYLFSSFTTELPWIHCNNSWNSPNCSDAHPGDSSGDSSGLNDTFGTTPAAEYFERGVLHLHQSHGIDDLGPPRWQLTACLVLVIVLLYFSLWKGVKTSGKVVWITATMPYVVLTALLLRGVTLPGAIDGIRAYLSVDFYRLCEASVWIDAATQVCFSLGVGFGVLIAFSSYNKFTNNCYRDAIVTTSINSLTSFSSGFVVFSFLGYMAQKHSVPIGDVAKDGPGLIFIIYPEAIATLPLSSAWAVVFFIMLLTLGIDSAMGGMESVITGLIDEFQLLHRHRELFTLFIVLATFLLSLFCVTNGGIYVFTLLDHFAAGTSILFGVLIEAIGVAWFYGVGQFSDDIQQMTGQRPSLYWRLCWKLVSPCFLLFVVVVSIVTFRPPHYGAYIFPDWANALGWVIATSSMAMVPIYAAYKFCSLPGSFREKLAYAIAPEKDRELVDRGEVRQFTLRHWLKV

D5 = D5 (Homo sapiens, UniProt P21918); assay: Radioligand competition binding, D5; details: Table 5; Cheng-Prusoff from best fit IC50
Chain of D5 (P21918 whole entry): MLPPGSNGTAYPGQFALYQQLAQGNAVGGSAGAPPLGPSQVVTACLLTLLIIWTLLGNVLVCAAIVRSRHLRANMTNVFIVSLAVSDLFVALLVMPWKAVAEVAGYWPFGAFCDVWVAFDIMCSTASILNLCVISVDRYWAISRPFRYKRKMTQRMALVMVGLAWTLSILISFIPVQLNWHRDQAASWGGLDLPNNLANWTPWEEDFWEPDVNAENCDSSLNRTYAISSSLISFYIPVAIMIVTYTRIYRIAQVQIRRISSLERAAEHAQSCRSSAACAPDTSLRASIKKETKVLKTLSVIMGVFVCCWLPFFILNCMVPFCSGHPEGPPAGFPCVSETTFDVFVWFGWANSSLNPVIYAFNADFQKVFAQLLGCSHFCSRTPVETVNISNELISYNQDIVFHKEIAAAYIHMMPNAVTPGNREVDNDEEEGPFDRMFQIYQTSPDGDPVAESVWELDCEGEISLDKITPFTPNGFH

D2 = D2 (Homo sapiens, UniProt P14416); assay: Radioligand competition binding, D2; details: Table 5; Cheng-Prusoff from best fit IC50
5-HT2B = 5-HT2B (Homo sapiens, UniProt P41595); assay: Radioligand competition binding, 5-HT2B; details: Table 5; Cheng-Prusoff from best fit IC50
5-HT2A = 5-HT2A (Homo sapiens, UniProt P28223); assay: Radioligand competition binding, 5-HT2A; details: Table 5; Cheng-Prusoff from best fit IC50
Chain of 5-HT2A (P28223 whole entry, species assumed): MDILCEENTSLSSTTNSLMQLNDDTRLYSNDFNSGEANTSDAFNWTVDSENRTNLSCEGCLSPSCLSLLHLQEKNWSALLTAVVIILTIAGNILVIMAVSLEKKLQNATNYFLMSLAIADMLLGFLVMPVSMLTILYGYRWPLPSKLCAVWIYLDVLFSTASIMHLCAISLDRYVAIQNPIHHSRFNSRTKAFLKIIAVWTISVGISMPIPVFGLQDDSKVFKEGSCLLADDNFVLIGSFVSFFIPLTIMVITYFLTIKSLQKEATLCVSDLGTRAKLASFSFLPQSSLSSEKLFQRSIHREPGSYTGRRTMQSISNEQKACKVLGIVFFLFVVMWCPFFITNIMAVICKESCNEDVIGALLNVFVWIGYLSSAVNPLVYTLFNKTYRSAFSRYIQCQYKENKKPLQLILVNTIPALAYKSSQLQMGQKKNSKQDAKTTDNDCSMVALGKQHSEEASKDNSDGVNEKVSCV

5-HT1D = 5-HT1D (Homo sapiens, UniProt P28221); assay: Radioligand competition binding, 5-HT1D; details: Table 5; Cheng-Prusoff from best fit IC50
Chain of 5-HT1D (P28221 whole entry, species assumed): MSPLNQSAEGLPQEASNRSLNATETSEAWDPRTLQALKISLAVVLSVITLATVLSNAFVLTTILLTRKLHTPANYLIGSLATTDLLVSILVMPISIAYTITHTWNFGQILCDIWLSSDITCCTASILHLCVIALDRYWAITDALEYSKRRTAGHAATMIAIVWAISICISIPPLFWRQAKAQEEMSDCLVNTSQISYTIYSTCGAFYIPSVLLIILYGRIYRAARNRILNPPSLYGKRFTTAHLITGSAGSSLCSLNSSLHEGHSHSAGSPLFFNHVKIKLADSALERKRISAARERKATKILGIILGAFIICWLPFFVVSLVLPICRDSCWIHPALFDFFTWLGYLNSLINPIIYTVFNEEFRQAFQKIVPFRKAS

5-HT6 = 5-HT6 (Homo sapiens, UniProt P50406); assay: Radioligand competition binding, 5-HT6; details: Table 5; Cheng-Prusoff from best fit IC50
Chain of 5-HT6 (P50406 whole entry, species assumed): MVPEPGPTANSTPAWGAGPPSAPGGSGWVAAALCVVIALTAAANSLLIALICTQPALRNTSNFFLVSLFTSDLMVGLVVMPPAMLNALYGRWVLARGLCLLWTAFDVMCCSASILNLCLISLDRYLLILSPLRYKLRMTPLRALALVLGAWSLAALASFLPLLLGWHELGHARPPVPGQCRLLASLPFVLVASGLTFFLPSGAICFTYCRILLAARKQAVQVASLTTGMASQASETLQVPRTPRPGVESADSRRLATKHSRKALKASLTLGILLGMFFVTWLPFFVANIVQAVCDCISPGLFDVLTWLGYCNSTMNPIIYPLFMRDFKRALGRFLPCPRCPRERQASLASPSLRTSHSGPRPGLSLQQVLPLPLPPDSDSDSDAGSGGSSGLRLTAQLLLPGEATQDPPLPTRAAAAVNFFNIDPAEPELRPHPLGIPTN

[1] = Table 1, 7-piperazinyl-tetrahydronaphthalene analogs, read-out: Ki (nM) Sig2R
[2] = Table 1, 7-piperazinyl-tetrahydronaphthalene analogs, read-out: Ki (nM) Sig1R
[3] = Table 5, Cheng-Prusoff from best fit IC50, read-out: Ki Sigma 2
[4] = Table 2, piperazinyl-tetrahydronaphthalene analogs, read-out: Ki (nM) Sig2R
[5] = Table 2, piperazinyl-tetrahydronaphthalene analogs, read-out: Ki (nM) Sig1R

Chain of sigma 2 receptor (Q5BJF2 whole entry, species assumed): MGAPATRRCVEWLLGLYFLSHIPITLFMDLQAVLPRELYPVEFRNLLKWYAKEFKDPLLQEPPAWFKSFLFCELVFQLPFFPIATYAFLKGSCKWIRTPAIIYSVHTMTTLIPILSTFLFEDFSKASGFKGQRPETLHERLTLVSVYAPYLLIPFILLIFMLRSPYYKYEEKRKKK

SMILES	Ki (sigma 2 receptor; [1])	Ki ratio Sig1R/Sig2R (sigma 2 receptor; Table 1)	Ki (sigma 1 receptor; [2])	also measured
CN1CCN(c2ccc3c(c2)C(N(C)C(=O)OCc2ccccc2)CCC3)CC1 (stereo not drawn) [MDW-1-93, Benzyl methyl(7-(4-methylpiperazin-1-yl)-1,2,3,4-tetrahydronaphthalen-1-yl)carbamate]	284 nM	10	2940 nM	
CN(Cc1ccccc1)C1CCCc2cc(N3CCOCC3)ccc21 (stereo not drawn) [MDW-1-129, N-Benzyl-N-methyl-6-morpholino-1,2,3,4-tetrahydronaphthalen-1-amine]				Ki (H1): 118 nM; Ki (sigma 2 receptor; [3]): 1170 nM; Ki (sigma 1 receptor; Table 5, Cheng-Prusoff from best fit IC50, read-out: Ki Sigma 1): 223 nM
CCN1CCN(c2ccc3c(c2)C(N(C)C(=O)OCc2ccccc2)CCC3)CC1 (stereo not drawn) [MDW-1-161, Benzyl (7-(4-ethylpiperazin-1-yl)-1,2,3,4-tetrahydronaphthalen-1-yl)(methyl)carbamate]	35 nM	25	887 nM	
CN(C(=O)OCc1ccccc1)C1CCCc2ccc(N3CCN(C4CCC4)CC3)cc21 (stereo not drawn) [MDW-1-162, Benzyl (7-(4-cyclobutylpiperazin-1-yl)-1,2,3,4-tetrahydronaphthalen-1-yl)(methyl)carbamate]	12 nM	22	266 nM	
COC(=O)CCN1CCN(c2ccc3c(c2)C(N(C)C(=O)OCc2ccccc2)CCC3)CC1 (stereo not drawn) [MDW-1-166, Methyl 3-(4-(8-(((benzyloxy)carbonyl)(methyl)amino)-5,6,7,8-tetrahydronaphthalen-2-yl)piperazin-1-yl)propanoate]	43 nM	67	2860 nM	
CC(C)N1CCN(c2ccc3c(c2)C(N(C)C(=O)OCc2ccccc2)CCC3)CC1 (stereo not drawn) [MDW-1-167, Benzyl (7-(4-isopropylpiperazin-1-yl)-1,2,3,4-tetrahydronaphthalen-1-yl)(methyl)carbamate]	8 nM	27	223 nM	
CCOC(=O)CN1CCN(c2ccc3c(c2)C(N(C)C(=O)OCc2ccccc2)CCC3)CC1 (stereo not drawn) [MDW-1-169, Ethyl 2-(4-(8-(((benzyloxy)carbonyl)(methyl)amino)-5,6,7,8-tetrahydronaphthalen-2-yl)piperazin-1-yl)acetate]	894 nM		> 10000 nM	
CCOC(=O)CCN1CCN(c2ccc3c(c2)C(N(CC)C(=O)OCc2ccccc2)CCC3)CC1 (stereo not drawn) [MDW-1-190, Ethyl 3-(4-(8-(((benzyloxy)carbonyl)(ethyl)amino)-5,6,7,8-tetrahydronaphthalen-2-yl)piperazin-1-yl)propanoate]	20 nM	166	3320 nM	
CCCN1CCN(c2ccc3c(c2)C(N(CC)C(=O)OCc2ccccc2)CCC3)CC1 (stereo not drawn) [MDW-1-195, Benzyl ethyl(7-(4-propylpiperazin-1-yl)-1,2,3,4-tetrahydronaphthalen-1-yl)carbamate]	5 nM	70	321 nM	
CCCN1CCN(c2ccc3c(c2)C(N(CCC)C(=O)OCc2ccccc2)CCC3)CC1 (stereo not drawn) [MDW-1-196, Benzyl propyl(7-(4-propylpiperazin-1-yl)-1,2,3,4-tetrahydronaphthalen-1-yl)carbamate]	9 nM	22	199 nM	Ki (5-HT7): 1050 nM; Ki (sigma 2 receptor; [3]): 9.4 nM; Ki (5-HT1B): 1310 nM; Ki (H2): 1040 nM; Ki (5-HT1A): 3800 nM; Ki (D1): 1920 nM; Ki (D3): 177 nM; Ki (Alpha2A): 980 nM; Ki (D4): 2510 nM; Ki (DAT): 1910 nM; Ki (D5): > 10000 nM; Ki (D2): 931 nM; Ki (5-HT2B): 2140 nM; Ki (5-HT2A): 1280 nM; Ki (5-HT1D): 1100 nM; Ki (5-HT6): 1960 nM
CCCN1CCN(c2ccc3c(c2)C(NC(=O)OCc2ccccc2)CCC3)CC1 (stereo not drawn) [MDW-1-202, Benzyl (7-(4-propylpiperazin-1-yl)-1,2,3,4-tetrahydronaphthalen-1-yl)carbamate]	56 nM	3	174 nM	
CCCN1CCN(c2ccc3c(c2)CCCC3N(C)C(=O)OCc2ccccc2)CC1 (stereo not drawn) [MDW-1-204, Benzyl methyl(6-(4-propylpiperazin-1-yl)-1,2,3,4-tetrahydronaphthalen-1-yl)carbamate]				Ki (sigma 2 receptor; [4]): 13 nM; Ki ratio Sig1R/Sig2R (sigma 2 receptor; Table 2): 3; Ki (sigma 1 receptor; [5]): 40 nM
CN(C(=O)OCc1ccccc1)C1CCCc2ccc(N3CCN(C4CCCCC4)CC3)cc21 (stereo not drawn) [MDW-1-205, Benzyl (7-(4-cyclohexylpiperazin-1-yl)-1,2,3,4-tetrahydronaphthalen-1-yl)(methyl)carbamate]	2 nM	8	16 nM	
CCOC(=O)CCN1CCN(c2ccc3c(c2)C(NC(=O)OCc2ccccc2)CCC3)CC1 (stereo not drawn) [MDW-1-206, Ethyl 3-(4-(8-(((benzyloxy)carbonyl)amino)-5,6,7,8-tetrahydronaphthalen-2-yl)piperazin-1-yl)propanoate]	80 nM	28	2260 nM	
CCOC(=O)CCN1CCN(c2ccc3c(c2)CCCC3N(C)C(=O)OCc2ccccc2)CC1 (stereo not drawn) [MDW-1-207, Ethyl 3-(4-(5-(((benzyloxy)carbonyl)(methyl)amino)-5,6,7,8-tetrahydronaphthalen-2-yl)piperazin-1-yl)propanoate]				Ki (sigma 2 receptor; [4]): 91 nM; Ki ratio Sig1R/Sig2R (sigma 2 receptor; Table 2): 7; Ki (sigma 1 receptor; [5]): 647 nM
CCOC(=O)CCN1CCN(c2cccc3c2CCCC3N(C)C(=O)OCc2ccccc2)CC1 (stereo not drawn) [MDW-1-214, Ethyl 3-(4-(5-(((benzyloxy)carbonyl)(methyl)amino)-5,6,7,8-tetrahydronaphthalen-1-yl)piperazin-1-yl)propanoate]				Ki (sigma 2 receptor; [4]): 34 nM; Ki ratio Sig1R/Sig2R (sigma 2 receptor; Table 2): 9; Ki (sigma 1 receptor; [5]): 303 nM
CCCN1CCN(c2cccc3c2CCCC3N(C)C(=O)OCc2ccccc2)CC1 (stereo not drawn) [MDW-1-215, Benzyl methyl(5-(4-propylpiperazin-1-yl)-1,2,3,4-tetrahydronaphthalen-1-yl)carbamate]				Ki (sigma 2 receptor; [4]): 26 nM; Ki ratio Sig1R/Sig2R (sigma 2 receptor; Table 2): 0.5; Ki (sigma 1 receptor; [5]): 12 nM
CCCN1CCN(c2ccc3c(c2)C(OC(=O)CCc2ccccc2)CCC3)CC1 (stereo not drawn) [MDW-1-290, 7-(4-Propylpiperazin-1-yl)-1,2,3,4-tetrahydronaphthalen-1-yl 3-phenylpropanoate]	25 nM	1	33 nM	
